Source: patent publication US4397860A, “Benzodioxanyl imidazoline compounds, compositions and use” (Reckitt & Colman Products Limited, priority 1981, dated 1983)
Structures can show the parent of a compound that is named as a salt. Where two headings read alike, the source gives them in different places.

How the values were obtained:
[1] = tested on: pre-synaptic α2-adrenoreceptor; assay: Pre-synaptic α2-adrenoreceptor antagonist activity, mouse vas deferens (reversal of clonidine inhibition); settings: for α2/α1 selectivity: selectivity relative to the compound of formula A, mouse vas deferens / rat anococcygeus
Experimental: In the antagonist studies the same experimental conditions were used except that the twitch response was suppressed by including clonidine (30 ng/ml) in the physiological solution.

[2] = molecular target: T1, postsynaptic α1-adrenoreceptor (Rattus norvegicus, UniProt P43140); assay: Post-synaptic α1-adrenoreceptor agonist activity, rat anococcygeus muscle (contractions); parameters: key: I.A.: inactive; settings: potency relative to phenylephrine = 1
T1 construct: the rat anococcygeus muscle is used to establish postsynaptic α1 -adrenoreceptor activity; from tissue; host or cells: rat anococcygeus muscle
T1 sequence (P43140 1-466): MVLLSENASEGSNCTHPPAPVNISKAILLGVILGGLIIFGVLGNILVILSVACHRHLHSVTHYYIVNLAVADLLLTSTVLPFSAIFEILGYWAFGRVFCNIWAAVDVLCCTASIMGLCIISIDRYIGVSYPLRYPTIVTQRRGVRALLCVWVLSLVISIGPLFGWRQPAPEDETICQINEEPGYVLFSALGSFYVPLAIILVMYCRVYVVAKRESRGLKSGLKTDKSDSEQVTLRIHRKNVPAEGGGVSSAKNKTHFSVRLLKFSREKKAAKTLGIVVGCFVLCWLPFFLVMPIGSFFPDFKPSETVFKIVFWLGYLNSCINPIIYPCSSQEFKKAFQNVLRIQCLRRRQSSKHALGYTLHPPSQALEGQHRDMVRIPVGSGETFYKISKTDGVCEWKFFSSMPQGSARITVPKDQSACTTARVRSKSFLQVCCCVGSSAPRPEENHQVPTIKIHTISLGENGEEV

[3] = molecular target: T2, pre-synaptic α2-adrenoreceptor (Mus musculus, UniProt Q01338); assay: Pre-synaptic α2-adrenoreceptor agonist activity, mouse vas deferens (inhibition of twitch responses); parameters: key: I.A.: inactive; settings: potency relative to clonidine = 1
T2 construct: from tissue; host or cells: mouse vas deferens
T2 sequence (Q01338 1-465): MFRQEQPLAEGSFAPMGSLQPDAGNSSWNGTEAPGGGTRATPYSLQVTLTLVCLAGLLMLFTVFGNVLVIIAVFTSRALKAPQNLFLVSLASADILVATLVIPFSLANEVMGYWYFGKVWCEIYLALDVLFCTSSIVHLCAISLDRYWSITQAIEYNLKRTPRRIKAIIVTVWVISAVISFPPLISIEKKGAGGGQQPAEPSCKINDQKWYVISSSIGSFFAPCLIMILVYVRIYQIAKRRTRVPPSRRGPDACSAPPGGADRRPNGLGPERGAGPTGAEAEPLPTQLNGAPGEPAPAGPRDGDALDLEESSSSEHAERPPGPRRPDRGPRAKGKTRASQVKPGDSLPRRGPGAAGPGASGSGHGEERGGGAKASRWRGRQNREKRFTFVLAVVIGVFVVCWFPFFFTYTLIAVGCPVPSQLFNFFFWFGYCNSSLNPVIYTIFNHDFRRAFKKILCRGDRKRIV
Experimental: The pharmacological activity of the compound of Example 1 (in formula I R^1 =methyl) has been compared with the activities of the isomeric compounds in which the methyl group is situated at differing positions in formula A. The procedures involved the measurement of agonist or antagonist activity at pre- and post-synaptic α-adrenoreceptors.
In the procedures outlined below agonist potency of the compounds was determined with respect to standard agents whereas antagonist potency was related to that of the compound of formula A. Pre- and post-synaptic studies were carried out in the mouse vas deferens and rat anococcygeus muscle respectively.
Pre-synaptic studies (α2)
The mouse vas deferens was stimulated at low frequency (0.1 Hz) and the "twitch" responses recorded. Pre-synaptic α2 -adrenoreceptor agonist activity was determined by assessing the ability of compounds to inhibit these contractions. When inhibition was seen the potency of the individual compounds was related to that of the standard α2 -adrenoreceptor agonist clonidine.

[4] = molecular target: T1, postsynaptic α1-adrenoreceptor; assay: Post-synaptic α1-adrenoreceptor antagonist activity, rat anococcygeus muscle (noradrenaline-induced contractions)
[5] = molecular target: T1, postsynaptic α1-adrenoreceptor; assay: Postsynaptic α1-adrenoreceptor antagonism vs noradrenaline contractions, isolated rat anococcygeus muscle; settings: mean of minimum 5 experiments, read-out: Postsynaptic antagonism pA2 vs Noradrenaline (anococcygeus) (converted)
[6] = tested on: presynaptic α2-adrenoreceptors; settings: from G.B. 2,068,376A / U.S. Ser. No. 230,195; cited from earlier work
[7] = rat anococcygeus muscle vs noradrenaline, dose-ratio of 2, […]

## CN1CCN=C1C1COc2ccccc2O1 (stereo not drawn) [3^1 -methyl]
[1]
  α2/α1 selectivity: 0.003
[2]
  α1 potency: Agonism: I.A.
[3]
  α2 potency: Agonism: I.A.
[4]
  α1 potency: Antagonism: 1.0

## CC1(C2=NCCN2)COc2ccccc2O1 (stereo not drawn) [Example 1, 2-[2-(2-Methyl-1,4-benzodioxanyl)]-2-imidazoline hydrochloride]
[1]; Table 3
  selectivity relative to the compound of formula A (in words): rather more than twice as selective as the compound of formula A
[1]
  α2/α1 selectivity: 2.4
[2]
  α1 potency: Agonism: I.A.
[3]
  α2 potency: Agonism: I.A.
[4]; [7]
  α1 potency: Antagonism: 0.28
[5]
  Kb: 2.51 µM

## CC1Oc2ccccc2OC1C1=NCCN1 (stereo not drawn) [Example 3-methyl]
[2]
  α1 potency: Agonism: I.A.
[3]
  α2 potency: Agonism: I.A.
[4]; [7]
  α1 potency: Antagonism: < 0.023

## Cc1cccc2c1OCC(C1=NCCN1)O2 (stereo not drawn) [Example 5-methyl]
[2]
  α1 potency: Agonism: 1.0
[3]
  α2 potency: Agonism: 0.1
[4]; rat anococcygeus muscle vs noradrenaline, 20ng/ml
  α1 potency: Antagonism (result in words): Potentiation

## Cc1ccc2c(c1)OCC(C1=NCCN1)O2 (stereo not drawn) [Example 6-methyl]
[1]
  α2/α1 selectivity: 0.7
[2]
  α1 potency: Agonism: I.A.
[3]
  α2 potency: Agonism: I.A.
[4]; [7]
  α1 potency: Antagonism: < 0.11

## Cc1ccc2c(c1)OC(C1=NCCN1)CO2 (stereo not drawn) [Example 7-methyl]
[1]
  α2/α1 selectivity: 0.64
[2]
  α1 potency: Agonism: 0.004
[3]
  α2 potency: Agonism: I.A.
[4]; [7]
  α1 potency: Antagonism: 0.125

## Cc1cccc2c1OC(C1=NCCN1)CO2 (stereo not drawn) [Example 8-methyl]
[2]
  α1 potency: Agonism: 2.1
[3]
  α2 potency: Agonism: 0.01

## c1ccc2c(c1)OCC(C1=NCCN1)O2 (stereo not drawn) [formula A, 2-[2-(1,4-benzodioxanyl)]-2-imidazoline]
[6]
  selectivity in blocking presynaptic α2-adrenoreceptors (in words): high degree of selectivity in blocking presynaptic α2 -adrenoreceptors
